Drawing on patent US4820721A, “1-aryl-5-(2-oxo-1-pyrrolidinyl)-1,2,3-triazolines as novel anticonvulsants” (priority 1988, dated 1989), this text covers ED50, minimal effective dose and TD50 for 2 molecules.

A word on the ED50: it is the dose at which the effect has come halfway, by size or by number of responders. Higher therefore signals a need for a large dose.

Data set [1] in a line: subcutaneous pentylenetetrazole (Metrazole) seizure threshold (scMet) test. In kind it is in vivo. As to conditions: Mus musculus, sc; Phase II; male albino mice; 85 mg/kg pentylenetetrazol s.c. On the procedure: (§1) The anticonvulsant activity was evaluated by subjecting male albino mice to the MES test and the scMet test. The maximal electroshock seizure test (MES) was performed according to the method of Swinyard et al (J. Pharmacol. Exp. Ther. 106, 319, 1952), and abolition of the hind limb tonic extensor component of the maximal seizures was defined as protection. In the subcutaneous pentylenetetrazole seizure threshold test (scMet), 85 mg/kg of pentylenetetrazol was administered as a 0.5% solution subcutaneously in the posterior midline, and failure to observe even a threshold seizure (a single episode of clonic spasms of at least 5-s duration) was defined as protection.

Data set [2] can be described thus: Phase I anticonvulsant activity (MES and scMet tests). It is filed as in vivo. The following applies: Mus musculus, male albino mice, read-out: Activity, Phase I (active dose). On the procedure:
They afford protection in both the scMet and MES seizure models. The 1-p-chlorophenyl-5-(2-oxo-1-pyrrolidinyl)-1,2,3-triazoline is active in the 100 mg/kg dose and the 1-phenyl-5-(2-oxo-1-pyrrolidinyl)-1,2,3-triazoline is active in the 300 mg/kg dose.
as §1

Data set [3] can be described thus: in vivo. As to conditions: mouse. Details: species or system mice. On the procedure:
Neurotoxicity was evaluated by the rotorod ataxia test (Dunham et al, J. Am. Pharm. Assoc. Sci. Ed., 46, 208, 1957). The animal was placed on a wooden rod of 2.8-cm diameter rotating at 6 rpm. Normal mice can remain on a rod rotating at this speed indefinitely.

The nature of data set [4]: maximal electroshock seizure (MES) test. It is filed as in vivo. As to conditions: Mus musculus; Phase II; male albino mice. On the procedure: as §1
In general terms: Protection in the maximal electroshock model is a classic sign of anticonvulsant action.

For `O=C1CCCN1C1CN=NN1c1ccc(Cl)cc1` (centres unmarked) [1-p-chlorophenyl-5-(2-oxo-1-pyrrolidinyl)-1,2,3-triazoline], the ED50 in data set [1] came out at 77.2 mg/kg; in data set [4] it was 116 mg/kg. The minimal effective dose in data set [2] stood at 100 mg/kg. In data set [3], this molecule gave a TD50 of 249 mg/kg.

Turning to `O=C1CCCN1C1CN=NN1c1ccccc1` (centres unmarked) [1-phenyl-5-(2-oxo-1-pyrrolidinyl)-1,2,3-triazoline], the minimal effective dose in data set [2] came to 300 mg/kg.
